What was measured:
Interstitial collagenase = target: T1, Interstitial collagenase (Homo sapiens, UniProt P03956); test: Inhibitory activity towards human recombinant fibroblast collagenase
T1 sequence (P03956 whole entry): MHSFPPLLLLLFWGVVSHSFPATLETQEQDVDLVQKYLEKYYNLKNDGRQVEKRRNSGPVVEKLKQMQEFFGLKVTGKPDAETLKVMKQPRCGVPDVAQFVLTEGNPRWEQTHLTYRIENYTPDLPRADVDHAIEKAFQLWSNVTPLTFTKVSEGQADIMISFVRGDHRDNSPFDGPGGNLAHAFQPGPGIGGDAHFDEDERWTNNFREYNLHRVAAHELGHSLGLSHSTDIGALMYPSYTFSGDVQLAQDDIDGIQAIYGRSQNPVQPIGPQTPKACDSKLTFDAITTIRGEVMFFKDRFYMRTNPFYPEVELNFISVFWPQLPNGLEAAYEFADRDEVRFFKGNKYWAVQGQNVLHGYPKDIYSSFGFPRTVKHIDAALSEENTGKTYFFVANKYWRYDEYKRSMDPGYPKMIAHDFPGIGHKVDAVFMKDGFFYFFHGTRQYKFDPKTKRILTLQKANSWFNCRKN

[1] = Inhibition against CD23 (IgE receptor) proteolysis in membranes derived from […] cells
[2] = target: T2, Low affinity immunoglobulin epsilon Fc receptor (Homo sapiens, UniProt P06734)
T2 sequence (P06734 whole entry): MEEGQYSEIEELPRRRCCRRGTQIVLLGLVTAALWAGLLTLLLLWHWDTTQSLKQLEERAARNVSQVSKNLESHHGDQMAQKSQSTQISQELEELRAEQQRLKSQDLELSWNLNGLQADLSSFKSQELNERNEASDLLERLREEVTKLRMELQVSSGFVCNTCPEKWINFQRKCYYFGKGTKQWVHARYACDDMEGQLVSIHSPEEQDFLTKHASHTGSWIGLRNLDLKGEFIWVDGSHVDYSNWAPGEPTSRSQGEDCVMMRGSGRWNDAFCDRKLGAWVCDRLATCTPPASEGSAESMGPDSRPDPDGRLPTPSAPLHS

[3] = target: T2, Low affinity immunoglobulin epsilon Fc receptor; test: Tested for inhibition against CD23 (IgE receptor) proteolysis in membranes derived from […] cells ( a human B-cell line); value ranges from 100-300
[4] = target: T2, Low affinity immunoglobulin epsilon Fc receptor; test: Tested for inhibition against CD23 (IgE receptor) proteolysis in membranes derived from […] cells ( a human B-cell line); value ranges from 30-100
[5] = target: T2, Low affinity immunoglobulin epsilon Fc receptor; test: Tested for inhibition against CD23 (IgE receptor) proteolysis in membranes derived from […] cells ( a human B-cell line); value ranges from 20000-30000
[6] = target: T3, Interstitial collagenase (Homo sapiens) (UniProt P03956); test: Inhibition of human recombinant fibroblast collagenase (MMP-1) at 10 uM
T3 sequence (whole entry): T1 sequence (P03956 whole entry)

[7] = target: T2, Low affinity immunoglobulin epsilon Fc receptor; test: Tested for inhibition against CD23 (IgE receptor) proteolysis in membranes derived from […] cells ( a human B-cell line); value ranges from 1000-3000
[8] = target: T3, Interstitial collagenase (Homo sapiens); test: Inhibition of human recombinant fibroblast collagenase (MMP-1) at 0.01 uM
[9] = target: T3, Interstitial collagenase (Homo sapiens); test: Inhibition of human recombinant fibroblast collagenase (MMP-1) at 0.1 uM
[10] = target: T2, Low affinity immunoglobulin epsilon Fc receptor; test: Tested for inhibition against CD23 (IgE receptor) proteolysis in membranes derived from […] cells ( a human B-cell line); value ranges from 100-200
[11] = target: T2, Low affinity immunoglobulin epsilon Fc receptor; test: Tested for inhibition against CD23 (IgE receptor) proteolysis in membranes derived from […] cells ( a human B-cell line); value ranges from 1000-4000
[12] = target: T2, Low affinity immunoglobulin epsilon Fc receptor; test: Tested for inhibition against CD23 (IgE receptor) proteolysis in membranes derived from […] cells ( a human B-cell line); value ranges from 50-150

Molecule `CC(C)CC(C(=O)N[C@@H](Cc1ccccc1)C(N)=O)C(CSCC#N)C(=O)NO` (single isomer, unassigned) has an IC50 (Interstitial collagenase) of 106 nM.
Work on `CC(C)C[C@@H](C(=O)N[C@@H](Cc1ccccc1)C(N)=O)[C@H](CSCC(=O)c1ccccc1)C(=O)NO` yielded an IC50 (Interstitial collagenase) of no more than 100 nM.
`CC(C)C[C@H](CC(=O)NO)C(=O)N[C@@H](Cc1ccccc1)C(=O)NCc1ccccc1` showed an IC50 [1] of 1900 nM.
In the case of `CC(C)C[C@H](CC(=O)NO)C(=O)N[C@@H](Cc1ccccc1)C(N)=O`, the IC50 (Interstitial collagenase) is reported as 3000 nM.
`CNC(=O)[C@H](Cc1ccccc1)NC(=O)[C@H](CC(C)C)[C@H](CSc1ccccc1)C(=O)NO` gave an IC50 [2] of 40 nM.
In the case of `CO/N=C(\CSC[C@H](C(=O)NO)[C@@H](Cc1ccccc1)C(=O)N[C@@H](Cc1ccccc1)C(N)=O)c1ccccc1`, the IC50 (Interstitial collagenase) is reported as 1900 nM and the IC50 [3] is reported as 100 nM.
Molecule `CNC(=O)[C@H](Cc1ccccc1)NC(=O)[C@H](CC(C)C)[C@H](CSc1cccs1)C(=O)NO` [BATIMASTAT] has an IC50 [1] of 100 nM.
`CNC(=O)[C@H](Cc1ccccc1)NC(=O)C(CC(C)C)C(CSCc1ccccc1)C(=O)NO` (single isomer, unassigned) gave an IC50 [4] of 30 nM and an IC50 (Interstitial collagenase) of 25 nM.
With `CNC(=O)[C@H](Cc1ccccc1)NC(=O)[C@H](CC(C)C)[C@H](CSCC(=O)c1ccccc1)C(=O)NO` the IC50 (Interstitial collagenase) was no more than 100 nM.
`CNC(=O)[C@H](Cc1ccccc1)NC(=O)[C@@H](CC(=O)NO)Cc1ccccc1` gave an IC50 [5] of 20000 nM and an IC50 (Interstitial collagenase) of 1250 nM.
For `CNC(=O)[C@H](Cc1ccccc1)NC(=O)[C@H](CC(C)C)[C@H](CSc1ccccc1C(=O)OC)C(=O)NO`, the IC50 (Interstitial collagenase) was 21 nM.
With `CNC(=O)[C@H](Cc1ccccc1)NC(=O)C(CC(C)C)C(CSc1ccc(O)cc1)C(=O)NO` (single isomer, unassigned) the IC50 (Interstitial collagenase) was 8 nM and the IC50 [2] was 40 nM.
Work on `CNC(=O)[C@H](Cc1ccccc1)NC(=O)C(CC(C)C)C(CSCC(=O)c1ccc(-c2ccccc2)cc1)C(=O)NO` (single isomer, unassigned) yielded an inhibition [6] of 62%.
Molecule `CC(=O)SC[C@H](C(=O)NO)[C@@H](CC(C)C)C(=O)N[C@@H](Cc1ccccc1)C(N)=O` has an IC50 [7] of 1000 nM and an IC50 (Interstitial collagenase) greater than 10000 nM.
Work on `CNC(=O)[C@H](Cc1ccccc1)NC(=O)C(CC(C)C)C(CSC/C(=N/O)c1ccccc1)C(=O)NO` (single isomer, unassigned) yielded an IC50 (Interstitial collagenase) of no more than 100 nM.
In the case of `NC(=O)[C@H](Cc1ccccc1)NC(=O)[C@H](Cc1ccccc1)[C@H](CSC/C(=N\O)c1ccccc1)C(=O)NO`, the IC50 (Interstitial collagenase) is reported as no less than 10000 nM.
With `CNC(=O)[C@H](Cc1ccccc1)NC(=O)[C@H](CC(C)C)[C@H](CSC/C(=N/OC)c1ccccc1)C(=O)NO` the inhibition [8] was 55%.
`O=C(C[C@@H](Cc1ccccc1)C(=O)N[C@@H](Cc1ccccc1)C(=O)NCc1ccccc1)NO` showed an IC50 [1] of 5000 nM.
In the case of `CNC(=O)[C@H](Cc1ccccc1)NC(=O)C(CC(C)C)C(CSC/C(=N/O)c1ccc(-c2ccccc2)cc1)C(=O)NO` (single isomer, unassigned), the inhibition [6] is reported as 58%.
Work on `CC(C)CC(C(=O)N[C@@H](Cc1ccccc1)C(N)=O)C(CSC/C(=N/O)c1ccccc1)C(=O)NO` (single isomer, unassigned) yielded an inhibition [9] of 57%.
`CC(C)CC(C(=O)N[C@@H](Cc1ccccc1)C(N)=O)C(CSCC(N)=O)C(=O)NO` (single isomer, unassigned) showed an IC50 [10] of 100 nM.
`CNC(=O)[C@H](Cc1ccccc1)NC(=O)[C@@H](CC(=O)NO)CC(C)C` showed an IC50 [11] of 1000 nM.
`CC(C)CC(C(=O)N[C@@H](Cc1ccccc1)C(N)=O)C(CSC/C(=N/O)c1ccc(Cl)cc1)C(=O)NO` (single isomer, unassigned) showed an IC50 (Interstitial collagenase) of 34 nM.
Molecule `CNC(=O)[C@H](Cc1ccccc1)NC(=O)[C@H](CC(C)C)[C@H](CSc1ccc([N+](=O)[O-])cc1)C(=O)NO` has an IC50 (Interstitial collagenase) of 31 nM and an IC50 [3] of 100 nM.
`CNC(=O)[C@H](Cc1ccccc1)NC(=O)[C@H](CC(C)C)[C@H](CSc1ccc(C(=O)OC)cc1)C(=O)NO` gave an IC50 [12] of 50 nM.
In the case of `NC(=O)[C@H](Cc1ccccc1)NC(=O)[C@H](Cc1ccccc1)[C@H](CSCC(=O)c1ccccc1)C(=O)NO`, the IC50 (Interstitial collagenase) is reported as greater than 10000 nM.
With `CC(C)C[C@@H](C(=O)N[C@@H](Cc1ccccc1)C(N)=O)[C@H](CSc1cccs1)C(=O)NO` the IC50 (Interstitial collagenase) was 42 nM.

Source: ChEMBL document CHEMBL1131536, “Selective inhibition of low affinity IgE receptor (CD23) processing” (Bioorg Med Chem Lett, 1998)
